Test results published in the NIST ThermoML archive (doi:10.1016/j.fluid.2014.11.009).

How the values were obtained:
[1] = 101 kPa, Liquid; for viscosity: Cone and plate viscometry; for mass density: Vibrating tube method
[2] = xn = mol fraction of the nth substance listed; conditions: 101 kPa, Liquid; for mass density: Vibrating tube method; for viscosity: Cone and plate viscometry

CN(CCO)CCO [N-methyldiethanolamine]
[1]
Conditions | mass density [kg/m3] | viscosity [mPa·s]
303.2 K | – | 56.3
313.2 K | 1026.7 | 34.44
323.2 K | 1018.9 | 22.93

CN(CCO)CCO [N-methyldiethanolamine] + O
[2]
Conditions | mass density, x1 = 0.0192 [kg/m3] | mass density, x1 = 0.1168 [kg/m3] | viscosity, x1 = 0.0192 [mPa·s] | viscosity, x1 = 0.1168 [mPa·s]
293.2 K | 1011.8 | 1043.3 | – | –
298.2 K | 1008.9 | 1040.4 | – | –
303.2 K | 1005.8 | 1037.3 | 1.568 | 6.671
313.2 K | 999.7 | 1030.8 | 1.178 | 4.706
323.2 K | 993.1 | 1024.1 | 0.796 | 3.057
333.2 K | 983.8 | 1016.9 | 0.688 | 2.193
343.2 K | 977.9 | 1009.4 | – | 1.589
353.2 K | 970.1 | 1001.7 | – | 1.194
363.2 K | 962 | 993.5 | – | –

NC(N)=[NH2+].O=S(=O)([O-])C(F)(F)F [guanidinium trifluoromethanesulfonate] + O
[2]
Conditions | mass density, x1 = 0.0202 [kg/m3] | mass density, x1 = 0.2073 [kg/m3] | viscosity, x1 = 0.0018 [mPa·s] | viscosity, x1 = 0.0056 [mPa·s] | viscosity, x1 = 0.0095 [mPa·s] | viscosity, x1 = 0.0137 [mPa·s] | viscosity, x1 = 0.0181 [mPa·s] | viscosity, x1 = 0.0202 [mPa·s] | viscosity, x1 = 0.2073 [mPa·s]
293.2 K | 1087.8 | 1125 | – | – | – | – | – | – | –
298.2 K | 1084 | 1120.3 | – | – | – | – | – | – | –
303.2 K | 1080.8 | 1116.9 | 0.7366 | 0.7996 | 0.8208 | 0.8616 | 0.9134 | 0.9855 | 1.361
313.2 K | 1073.9 | 1110.6 | 0.6512 | 0.6757 | 0.6976 | 0.7326 | 0.8268 | 0.8374 | 1.098
323.2 K | 1067.4 | 1103.8 | 0.6047 | 0.6289 | 0.6517 | 0.6872 | 0.7268 | 0.7438 | 0.9221
333.2 K | 1059.3 | 1097.5 | 0.5555 | 0.5686 | 0.5834 | 0.6095 | 0.6302 | 0.6544 | 0.67
343.2 K | 1050.9 | 1088.8 | – | – | – | – | – | – | –
353.2 K | 1043.2 | 1080 | – | – | – | – | – | – | –
363.2 K | 1035 | 1072.1 | – | – | – | – | – | – | –
